Reference: patent US11390828B2, “Catnip cultivar ‘CR9’” (RUTGERS, THE STATE UNIVERSITY OF NEW JERSEY, priority 2016, dated 2022)

Assays:
[1] = tested on: Anopholes gambiae; assay: Dose dependent mosquito landing rate inhibition assay; format: in vivo; details: treatment at 1.00%, FIG. 5
Experimental: (§1) Nepeta cataria plants were evaluated as insect repellents against Aedes aegypti and Anopholes gambiae mosquitoes in a landing rate inhibition assay against DEET as shown in FIGS. 4 and 5. A dose dependent curve was generated for all treatments and a time course analysis was performed with a crude essential oil sample. […] Between two and four hours the ability to generate 95% repellency diminished.
Repellency was determined by a one-choice landing assay that uses the amount of mosquito landings to calculate the overall effectiveness of the candidate repellent. Twenty, one day starved adult female Aedes aegypti mosquitoes were aspirated into a Bug Dorm Cage. Testing was performed between 10:00 am and 4:00 pm PST during A. aegypti's host seeking hours. A HotHands® heat pack was used as the heat source to attract the mosquitoes in the upper region of the back panel. Treatments were applied to a Whatman® filter paper and used to wrap the heat source. A control of just acetone was applied to the filter papers before and after each treatment to ensure reproducibility in mosquito behavior. […] Time lapse photography recorded one image every five seconds. A custom was used to count the mosquitoes automatically through the open source image processing software ImageJ.

[2] = tested on: Aedes aegypti; assay: Dose dependent one-choice mosquito landing rate inhibition assay; format: in vivo
Experimental: as §1
Mosquito eggs were reared in water at 27° C. with 80% humidity and the mosquitoes were transferred during the rearing process with an eye dropper. The A. aegypti eggs were placed in a container holding water and once hatched and formed into larvae, they were separated from the unhatched eggs and placed into fresh water. General fish food tablets were used as the energy source for the maturing mosquitoes. As the mosquitoes began to form into pupae, they were separated from the smaller less developed larvae and placed into fresh water. This container was then placed into a Bug Dorm Cage where the pupae were allowed to mature into adults. […]
Repellency was determined by a one-choice landing assay that uses the amount of mosquito landings to calculate the overall effectiveness of the candidate repellent. […] Time lapse photography recorded one image every five seconds. […]

[3] = tested on: two species of mosquitoes; details: cited from earlier work
[4] = tested on: harvester ants; details: body contact; cited from earlier work
[5] = tested on: house dust mite species, poultry mites; details: in vivo; cited from earlier work
[6] = tested on: house and stable flies; details: in vivo; cited from earlier work

Molecule: CCN(CC)C(=O)c1cccc(C)c1 [DEET]
- decrease in landings of mosquitoes (repellency) [1]: > 95%
- decrease in landings of mosquitoes (repellency) ([2]; treatment at 1.00% on filter paper, FIG. 4): > 95%

Molecule: CC1COC(=O)C2C(C)CCC12 (centres unmarked) [dihydronepetalactone 2]
- duration of complete protection ([3]; human subjects): up to five
- repelling efficacy compared with DEET ([3]; two species of mosquitoes): as effective at repelling two species of mosquitoes as DEET

Molecule: Z, E nepetalactone
- speed of mortality compared with the other nepetalactones in catnip [4]: mortality was achieved faster
- repellency percentage compared between treatments ([2]; treatment at 0.10%): highest repellency percentage
- repellency [5]: efficient in repelling
- repellency [6]: significant repellency
